Literature values in patent US20030082168A1, “Compositions and methods for facilitating weight loss” (priority 2001, published 2003).
Like-named read-outs stand apart in the source and are kept apart here.

Experiments:
[1] = test system: intercapsular brown adipose tissue (IBAT); details: caffeine alone
[2] = 2% CLA in diet; P=0.01
[3] = for Weight of control group above CLA group: after 6 weeks

Row | Compound | IBAT oxygen uptake [1] | Subcutaneous fat, change vs sunflower oil [2] [%] | Weight of control group above CLA group ([3]; high-fat diet, P<0.0001) [g] | Energy intake, growth rate, adipose depot weight and carcass lipid ([3]; independent of diet composition) | Weight of control group above CLA group ([3]; low-fat diet, P<0.005) [g] | Metabolic rate ([3]; mouse, in vivo) | Nighttime respiratory quotient ([3]; mouse, in vivo)
1 | Cn1c(=O)c2c(ncn2C)n(C)c1=O [Caffeine] | does not increase |  |  |  |  |  | 
2 | Conjugated linoleic acid [CLA] |  | −6.8 | 5.7 | significantly reduced | 3.2 | significantly increased | decreased
